The record followed here is PMC6257796, “Effects of Eupatilin and Jaceosidin on Cytochrome P450 Enzyme Activities in Human Liver Microsomes” (Molecules, 2010).

Bounds are passed on as bounds.

Holding throughout (format): in vitro ADME
The target in one data set is T1, CYP1A2 (Homo sapiens, UniProt P05177).
T1 construct: pooled human liver microsomes (0.25 mg/mL); tissue BD Gentest Co. H161; host or cells: pooled human liver microsomes
T1 sequence (P05177 1-516): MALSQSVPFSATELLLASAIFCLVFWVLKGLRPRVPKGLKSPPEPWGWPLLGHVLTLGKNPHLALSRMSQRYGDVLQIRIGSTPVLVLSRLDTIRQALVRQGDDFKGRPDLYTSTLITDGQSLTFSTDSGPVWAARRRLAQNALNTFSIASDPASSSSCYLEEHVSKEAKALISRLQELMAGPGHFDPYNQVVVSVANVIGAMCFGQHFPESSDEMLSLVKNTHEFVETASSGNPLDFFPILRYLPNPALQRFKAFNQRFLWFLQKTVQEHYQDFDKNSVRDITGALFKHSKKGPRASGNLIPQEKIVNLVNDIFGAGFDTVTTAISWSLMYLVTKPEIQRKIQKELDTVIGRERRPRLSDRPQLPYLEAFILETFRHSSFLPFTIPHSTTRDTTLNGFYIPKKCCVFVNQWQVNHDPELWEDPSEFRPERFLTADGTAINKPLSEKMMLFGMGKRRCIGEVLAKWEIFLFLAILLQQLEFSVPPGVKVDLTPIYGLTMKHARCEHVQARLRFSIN
As to the kind of experiment: Cocktail probe assay in pooled human liver microsomes: phenacetin O-deethylation (IC50). Particulars: 50 μM phenacetin. The procedure:
(§1) The inhibitory potencies (IC50 values) of eupatilin and jaceosidin were determined with CYP assays in the presence and absence of eupatilin and jaceosidin (final concentrations of 0.1−100 μM with acetonitrile concentration of less than 0.5% v/v) using pooled human liver microsomes. Phenacetin O-deethylase, coumarin 7-hydroxylase, amodiaquine N-deethylase, diclofenac hydroxylase, [S]-mephenytoin 4'-hydroxylase, bufuralol 1'-hydroxylase, and midazolam 1'-hydroxylase activities were determined as probe activities for CYP1A2, CYP2A6, CYP2C8, CYP2C9, CYP2C19, CYP2D6, and CYP3A, respectively, using cocktail incubation and tandem mass spectrometry. The incubation mixtures were prepared in a total volume of 200 μL as follows: pooled human liver microsomes (0.25 mg/mL), 1.3 mM NADPH, 3.3 mM MgCl2, 50 mM potassium phosphate buffer (pH 7.4), and a cocktail of probe substrates and various concentrations of eupatilin or jaceosidin (0.1−100 μM). […] After a 3 min preincubation at 37 °C, the reactions were initiated by adding NADPH and incubated for 20 min at 37 °C with shaking in a water bath. After incubation, the reaction was stopped by placing the tubes on ice and adding 100 μL of ice-cold acetonitrile containing internal standards (0.5 μg/mL [^13C,^15N]-acetaminophen for acetaminophen and N-desethylamodiaquine, 0.5 μg/mL [^2H5]-7-hydroxycoumarin for 7-hydroxycoumarin, 2.0 μg/mL [^13C6]-4-hydoxydiclofenac for 4-hydoxydiclofenac, 0.5 μg/mL [^2H3]-4'-hydoxymephenytoin for 4-hydoxymephenytoin and 1'-hydroxymidazolam, and 0.5 μg/mL [^2H7]-1'-hydroxybufuralol for 1'-hydroxybufuralol). The incubation mixtures were then centrifuged at 10,000× g for 5 min. All incubations were performedin triplicate.
(§2) To evaluate the effect of preincubation on inhibitory potency, eupatilin and jaceosidin (0.1−100 μM) were preincubated for 30 min with NADPH, buffer, and microsomes before the addition of the CYP probe substrates. The reaction was started by addition of the cocktail of probe substrates.
(§3) All seven metabolites produced from the cocktail of CYP isoform-specific substrates were simultaneously determined by LC/MS/MS. The system consisted of a tandem quadrupole mass spectrometer (TSQ Quantum Access, ThermoFisher Scientific, CA, USA) coupled with a Nanospace SI-2 LC system. The separation was performed on an Atlantis dC18 column (5 μm, 2.1 mm i.d. × 100 mm, Waters, Waltham, MA, USA) using the gradient elution of a mixture of 5% methanol in 0.1% formic acid (mobile phase A) and 95% methanol in 0.1% formic acid (mobile phase B) at a flow rate of 0.25 mL/min: 10% mobile phase B for 1 min, 10% to 95% mobile phase B for 1 min, 95% mobile phase B for 5 min. […] Quantification was performed by selected reaction monitoring (SRM) of the [M+H]^+ ion and the related product ion for each metabolite. […]
A general note: Microsomes from liver hold many membrane-bound enzymes, among them those of drug oxidation.

In the next data set the target is T2, CYP2A6 (Homo sapiens, UniProt P11509).
T2 construct: pooled human liver microsomes (0.25 mg/mL); tissue BD Gentest Co. H161; host or cells: pooled human liver microsomes
T2 sequence (P11509 1-494): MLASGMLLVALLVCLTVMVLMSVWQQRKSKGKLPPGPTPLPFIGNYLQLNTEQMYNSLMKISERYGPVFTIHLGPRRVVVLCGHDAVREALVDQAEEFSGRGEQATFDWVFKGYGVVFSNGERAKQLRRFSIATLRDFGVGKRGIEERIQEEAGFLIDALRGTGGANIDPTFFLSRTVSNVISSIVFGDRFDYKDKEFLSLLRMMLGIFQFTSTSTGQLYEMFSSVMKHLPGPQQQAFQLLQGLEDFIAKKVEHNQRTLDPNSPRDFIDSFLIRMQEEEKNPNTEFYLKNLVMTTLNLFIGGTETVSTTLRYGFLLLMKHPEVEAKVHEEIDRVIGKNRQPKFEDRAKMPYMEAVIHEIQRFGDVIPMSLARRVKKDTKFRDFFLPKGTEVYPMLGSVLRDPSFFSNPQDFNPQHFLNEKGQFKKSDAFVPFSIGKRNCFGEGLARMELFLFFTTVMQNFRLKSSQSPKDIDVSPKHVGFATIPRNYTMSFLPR
As to the kind of experiment: Cocktail probe assay in pooled human liver microsomes: coumarin 7-hydroxylation (IC50). Particulars: for IC50, coumarin 7-hydroxylation (CYP2A6): pooled human liver microsomes, 2.5 μM coumarin. Here is the method: as §1, §2
(§4) All seven metabolites produced from the cocktail of CYP isoform-specific substrates were simultaneously determined by LC/MS/MS. The system consisted of a tandem quadrupole mass spectrometer (TSQ Quantum Access, ThermoFisher Scientific, CA, USA) coupled with a Nanospace SI-2 LC system. The separation was performed on an Atlantis dC18 column (5 μm, 2.1 mm i.d. × 100 mm, Waters, Waltham, MA, USA) using the gradient elution of a mixture of 5% methanol in 0.1% formic acid (mobile phase A) and 95% methanol in 0.1% formic acid (mobile phase B) at a flow rate of 0.25 mL/min: 10% mobile phase B for 1 min, 10% to 95% mobile phase B for 1 min, 95% mobile phase B for 5 min. The column and autosampler temperatures were 50 °C and 4 °C, respectively. After 1.5 min, the LC eluant was diverted from waste to the mass spectrometer that was fitted with an electrospray ionization (ESI) source and operated in the positive ion mode. The ESI source settings for the ionization of the metabolites were as follows: electrospray voltage, 5.0 kV; vaporizer temperature, 420 °C; capillary temperature 360 °C; sheath gas pressure, 35 psi; auxiliary gas pressure, 10 psi. Quantification was performed by selected reaction monitoring (SRM) of the [M+H]^+ ion and the related product ion for each metabolite. The analytical data were processed using Xcalibur® software (ThermoFisher Scientific).
(§5) The IC50 values (concentration of inhibitor causing 50% inhibition of the original enzyme activity) were calculated using WinNonlin software, a non-linear regression analysis program (Pharsight, Mountain View, CA, USA). The apparent kinetic parameters for inhibitory potential (Ki values) were estimated from the fitted curves using Enzyme Kinetics Ver. 1.3 program (Systat Software Inc., San Jose, CA, USA).

In another data set the target is T3, CYP2C8 (Homo sapiens, UniProt P10632).
T3 construct: pooled human liver microsomes (0.25 mg/mL); tissue BD Gentest Co. H161; host or cells: pooled human liver microsomes
T3 sequence (P10632 1-490): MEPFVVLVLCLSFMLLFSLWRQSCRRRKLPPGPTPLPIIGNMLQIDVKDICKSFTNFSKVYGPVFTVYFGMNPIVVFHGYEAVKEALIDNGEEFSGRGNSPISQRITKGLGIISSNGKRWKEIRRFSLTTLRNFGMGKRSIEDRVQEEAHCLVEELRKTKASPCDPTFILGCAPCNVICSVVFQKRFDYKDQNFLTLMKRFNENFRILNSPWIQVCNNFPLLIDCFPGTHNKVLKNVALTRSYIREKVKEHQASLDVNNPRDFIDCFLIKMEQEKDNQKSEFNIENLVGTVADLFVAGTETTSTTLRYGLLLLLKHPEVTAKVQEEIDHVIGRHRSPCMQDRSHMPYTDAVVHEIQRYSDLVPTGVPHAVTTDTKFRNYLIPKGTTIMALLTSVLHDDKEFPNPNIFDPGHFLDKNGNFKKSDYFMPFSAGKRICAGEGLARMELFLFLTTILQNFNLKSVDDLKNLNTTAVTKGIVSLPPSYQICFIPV
As to the kind of experiment: Cocktail probe assay in pooled human liver microsomes: amodiaquine N-deethylation (IC50). Particulars: 2.0 μM amodiaquine, no preincubation. The procedure: as §1, with “After incubation, the reaction was stopped by placing the tubes on ice and adding 100 μL of ice-cold acetonitrile containing internal standards (0.5 μg/mL [^13C,^15N]-acetaminophen for acetaminophen and N-desethylamodiaquine, 0.5 μg/mL [^2H5]-7-hydroxycoumarin for 7-hydroxycoumarin, 2.0 μg/mL [^13C6]-4-hydoxydiclofenac for 4-hydoxydiclofenac, 0.5 μg/mL [^2H3]-4'-hydoxymephenytoin for 4-hydoxymephenytoin and 1'-hydroxymidazolam, and 0.5 μg/mL [^2H7]-1'-hydroxybufuralol for 1'-hydroxybufuralol). The incubation mixtures were then centrifuged at 10,000× g for 5 min. All incubations were performedin triplicate.” left out
All seven metabolites produced from the cocktail of CYP isoform-specific substrates were simultaneously determined by LC/MS/MS. […] Quantification was performed by selected reaction monitoring (SRM) of the [M+H]^+ ion and the related product ion for each metabolite. […]

The target of the next data set is T4, CYP2C9 (Homo sapiens, UniProt P11712).
T4 construct: pooled human liver microsomes (0.25 mg/mL); tissue BD Gentest Co. H161; host or cells: pooled human liver microsomes
As to the kind of experiment: Cocktail probe assay in pooled human liver microsomes: diclofenac 4-hydroxylation (IC50). Particulars: 10 μM diclofenac. The procedure: as §1, §2, §3

For the next data set, the target named is T5, CYP2C19 (Homo sapiens, UniProt P33261).
T5 construct: pooled human liver microsomes (0.25 mg/mL); tissue BD Gentest Co. H161; host or cells: pooled human liver microsomes
As to the kind of experiment: Cocktail probe assay in pooled human liver microsomes: [S]-mephenytoin 4'-hydroxylation (IC50). The settings on record: 50 μM [S]-mephenytoin. The procedure:
as §1, §2, §3

A further data set has as its target T6, CYP2D6 (Homo sapiens, UniProt P10635).
T6 construct: pooled human liver microsomes (0.25 mg/mL); tissue BD Gentest Co. H161; host or cells: pooled human liver microsomes
The data set can be described thus: Cocktail probe assay in pooled human liver microsomes: bufuralol 1'-hydroxylation (IC50). Particulars: 5.0 μM bufuralol. Here is the method:
as §1, §2, §3

In another data set the test system is CYP3A. As to the kind of experiment: Cocktail probe assay in pooled human liver microsomes: midazolam 1'-hydroxylation (IC50). Particulars: 100 μM, human liver microsomes. The procedure: as §1, §2, §4, §5
The mark [1] stands for this setting: with 30 min preincubation in presence of NADPH.

T5 sequence (P33261 whole entry): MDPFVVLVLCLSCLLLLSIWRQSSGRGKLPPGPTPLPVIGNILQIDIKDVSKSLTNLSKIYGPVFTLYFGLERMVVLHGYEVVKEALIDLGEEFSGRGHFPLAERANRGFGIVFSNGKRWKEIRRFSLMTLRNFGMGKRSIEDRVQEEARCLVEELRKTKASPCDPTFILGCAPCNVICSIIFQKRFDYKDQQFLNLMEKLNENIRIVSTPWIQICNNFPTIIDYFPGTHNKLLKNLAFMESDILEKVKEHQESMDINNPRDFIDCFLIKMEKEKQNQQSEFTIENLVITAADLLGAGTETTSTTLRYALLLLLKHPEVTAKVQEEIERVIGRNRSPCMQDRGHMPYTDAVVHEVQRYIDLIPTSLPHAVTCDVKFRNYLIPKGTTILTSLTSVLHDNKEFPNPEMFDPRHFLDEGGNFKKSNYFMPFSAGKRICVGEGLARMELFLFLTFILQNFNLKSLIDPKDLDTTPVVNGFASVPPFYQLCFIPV
T4 sequence (P11712 whole entry): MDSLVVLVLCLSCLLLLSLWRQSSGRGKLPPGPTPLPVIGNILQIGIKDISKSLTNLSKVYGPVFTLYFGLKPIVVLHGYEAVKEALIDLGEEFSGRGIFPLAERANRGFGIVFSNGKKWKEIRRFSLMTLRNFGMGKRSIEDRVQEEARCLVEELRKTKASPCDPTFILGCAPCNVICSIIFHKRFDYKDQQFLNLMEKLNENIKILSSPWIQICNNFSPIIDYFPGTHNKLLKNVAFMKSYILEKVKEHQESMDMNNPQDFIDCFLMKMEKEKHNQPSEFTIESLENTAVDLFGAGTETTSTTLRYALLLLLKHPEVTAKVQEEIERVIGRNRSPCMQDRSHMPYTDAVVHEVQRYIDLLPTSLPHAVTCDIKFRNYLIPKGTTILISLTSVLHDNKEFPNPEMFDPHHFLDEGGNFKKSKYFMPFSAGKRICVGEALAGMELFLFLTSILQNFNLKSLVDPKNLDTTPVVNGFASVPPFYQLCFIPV
T6 sequence (P10635 whole entry): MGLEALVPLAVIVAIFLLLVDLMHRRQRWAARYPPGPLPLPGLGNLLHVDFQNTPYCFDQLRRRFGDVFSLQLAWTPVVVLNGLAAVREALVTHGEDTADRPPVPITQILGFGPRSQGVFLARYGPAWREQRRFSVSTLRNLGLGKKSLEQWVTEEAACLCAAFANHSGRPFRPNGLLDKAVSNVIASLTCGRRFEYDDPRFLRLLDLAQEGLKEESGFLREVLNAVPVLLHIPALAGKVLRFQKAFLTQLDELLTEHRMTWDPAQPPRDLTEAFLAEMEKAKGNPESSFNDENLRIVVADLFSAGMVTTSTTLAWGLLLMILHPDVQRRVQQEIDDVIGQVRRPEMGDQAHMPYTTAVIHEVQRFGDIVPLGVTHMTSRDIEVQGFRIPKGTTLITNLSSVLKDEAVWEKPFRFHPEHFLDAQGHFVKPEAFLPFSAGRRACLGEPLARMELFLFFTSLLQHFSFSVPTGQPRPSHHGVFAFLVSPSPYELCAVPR

Turning to `COc1cc(-c2cc(=O)c3c(O)c(OC)c(O)cc3o2)ccc1O` [jaceosidin, 5,7-dihydroxy-2-(4-hydroxy-3-methoxyphenyl)-6-methoxychromen-4-one], the IC50 (usually the point on the concentration scale where inhibition reaches its midpoint) against CYP1A2 (no preincubation) is 5.3 ± 0.81 µM; on CYP1A2 (setting [1]) it was 6 ± 0.45 µM; at CYP2C8 it was more than 100 µM; on CYP2C9 (no preincubation), 10.2 ± 1 µM; on CYP2C9 (setting [1]) it was 8.6 ± 0.91 µM; against CYP2C19 (no preincubation) it was 64.9 ± 4.8 µM. Further, the IC50 at CYP2C19 (setting [1]) worked out at 69.8 ± 3.8 µM; against CYP2D6 (no preincubation) it was 79.1 ± 1.8 µM; at CYP2D6 (setting [1]), 82.3 ± 2.4 µM. Moreover, at CYP2A6 (100 μM, human liver microsomes), the “Inhibition of CYP2A6-catalyzed coumarin 7-hydroxylation at the highest concentration tested” value was “negligible inhibition”. Further, the “IC50, coumarin 7-hydroxylation (CYP2A6)” value at CYP2A6 (no preincubation) and at CYP2A6 (setting [1]) was “No inhibition” in each case. The “Inhibition of CYP3A4-catalyzed midazolam 1'-hydroxylation at the highest concentration tested” value in the data set with CYP3A was “negligible inhibition”.
